# Experimental data as given in US20080305169A1, “Pharmaceutical Compositions Comprising Nitrogen-Containing Fused Ring Coumpounds” (Japan Tobacco Inc., priority 2006, published 2008).
# Experiments:
# [1] = Evaluation of stability on excipient compatibility, compound C (Experimental Example 11); assay type: physicochemical; settings: 60° C., 75% RH, 2 weeks
# Description: Evaluation of Stability on Excipient Compatibility
# Compound C was physically mixed in various additives shown in Table 48 in a mortar (see Table 48 for mixing ratio), and the obtained mixed powder was placed in a glass sample bottle in a layer thickness of about 5 mm.
# The glass sample bottle was placed in a desiccator humidity-conditioned to 75% RH (relative humidity) without capping, and the desiccator containing the bottle was preserved for 2 weeks in a constant-temperature equipment set to 60° C.
# After the completion of the preservation, a 60 v/v % aqueous acetonitrile solution was added to a concentration of compound C of 0.5 mg/mL, and the mixture was subjected to a dissolution treatment by ultrasonication and a filtration treatment. Each sample was measured by high performance liquid chromatography, and the stability was evaluated based on the changes from the start of preservation.
# [2] = Guideline for the management of hyperuricemia and gout (1st Edit.); cited from earlier work
stability when compounded with an additive ([1]; compounded with an additive other than calcium silicate),Compound,HPLC peak of decomposition product ([1]; when calcium silicate is added),dissolution concentration of uric acid in plasma [2]
good stability,"O=C(c1cc(Cl)c(O)c(Cl)c1)N1CCOc2ccccc21 [Reference Example 3, (3,5-dichloro-4-hydroxyphenyl)-(2,3-dihydrobenzo[1,4]oxazin-4-yl)-methanone]",novel peak considered to derive from the decomposition product of compound C,–
–,O=c1[nH]c(=O)c2[nH]c(=O)[nH]c2[nH]1 [uric acid],–,7 mg/dL
